According to US20020127263A1, “Peroxisome proliferator-acitvated receptor gamma ligand eluting medical device” (priority 2001, published 2002):

Legend:
HCASMCs = test: Ciglitazone cytotoxicity against HCASMCs (lactate dehydrogenase); type: cell-based, Human; conditions: HCASMC, 0.001 μg/mL to 10 μg/mL Ciglitazone, after 24 hours, FIG. 1c
Method: (§1) Ciglitazone cytotoxicity against HCASMCs was evaluated by seeding 24 well cell culture plates with 5.0×10^5HCASM cells/mL of cell culture media containing from 0.001 μg/mL to 10 μg/mL of Ciglitazone. Samples were taken after 24 hours and tested for lactate dehydrogenase […] concentration using methods known to those having ordinary skill in the art. Elevated LDL levels indicates cytotoxicity. FIG. 1c graphically depicts the cytotoxicity testing results.

[1] = system: Human coronary smooth muscles cells (HCASMC); test: HCASMC proliferation inhibition by Ciglitazone; type: cell-based; conditions: day four, both cell culture schemes, FIG. 1a
Method: Human coronary smooth muscles cells (HCASMC) were seeded in 24 well polystyrene tissue culture plates at a density of 5×10^3 cells per well. Two different feeding and reading strategies were employed. Strategy 1: Cells were plated in cell culture media containing various concentrations of Ciglitazone and incubated at 37° C. for 48 hours. After the initial 48 hour incubation, the Ciglitazone containing plating media was changed and the cells were fed with drug free media and incubated for an additional 48 hours and then read. Strategy 2: Cells were plated in cell culture media containing various concentrations of Ciglitazone and incubated at […] for 48 hours. After the initial 48 hour incubation, the Ciglitazone-containing plating media was changed and the cells were fed with Ciglitazone-containing media and incubated for an additional 48 hours and then read. On day four cultures were analyzed to determine the proliferation inhibition effects of Ciglitazone. FIG. 1a graphically depicts the percent inhibition at Ciglitazone levels between 0.001 μg/mL to 50 μg/mL for both cell culture schemes. It can be seen from FIG. 1a that significant HCASMC inhibition (>50% inhibition) begins at a dosage of 10 μg/mL and rises dramatically to nearly 100% at 50 μg/mL. FIG. 1b graphically depicts the same results in bar graph form based on cell counts.

HCAECs = test: Ciglitazone cytotoxicity against HCAECs (lactate dehydrogenase); type: cell-based, Human; conditions: HCAEC, 0.001 μg/mL to 10 μg/mL Ciglitazone, after 24 hours, FIG. 2c
Method: as §1, with “HCAECs” for “HCASMCs”, “5.0×10^5 HCAE” for “5.0×10^5HCASM”, “indicate” for “indicates”, “2c” for “1c”

[2] = system: Human coronary artery endothelial cells (HCAEC); test: HCAEC proliferation inhibition by Ciglitazone; type: cell-based; conditions: Endothelial cell, day four, both cell culture schemes, FIG. 2a
Method: Human coronary artery endothelial cells (HCAEC) were seeded in 24 well polystyrene tissue culture plates at a density of 5×10^3 cells per well. Two different feeding strategies and reading strategies were employed. Strategy 1: Cells were plated in cell culture media containing various concentrations of Ciglitazone and incubated at 37° C. for 48 hours. After the initial 48 hour incubation, the Ciglitazone containing plating media was changed and the cells were fed with drug free media and incubated for an additional 48 hours and then read. Strategy 2: Cells were plated in cell culture media containing various concentrations of Ciglitazone and incubated at […] for 48 hours. After the initial 48 hour incubation, the Ciglitazone-containing plating media was changed and the cells were fed with Ciglitazone-containing media and incubated for an additional 48 hours and then read. On day four cultures were analyzed to determine the proliferation inhibition effects of Ciglitazone. […] graphically depicts the percent inhibition at Ciglitazone levels between 0.001 μg/mL to 50 μg/mL for both cell culture schemes. It can be seen from FIG. 2a that significant HCAEC inhibition (>50% inhibition) begins at a dosage of 5 μg/mL and rises dramatically to nearly 100% at 10 μg/mL. FIG. 2b graphically depicts the same results in bar graph form based on cell counts.

Compound: CC1(COc2ccc(CC3SC(=O)NC3=O)cc2)CCCCC1 (stereo not drawn) [Ciglitazone]
- cytotoxicity (lactate dehydrogenase concentration) (HCASMCs): No cytotoxicity was detected
- inhibition at 10 µg/mL ([1]; 10 μg/mL Ciglitazone): > 50%
- inhibition at 50 µg/mL ([1]; 50 μg/mL Ciglitazone): ~100%
- cytotoxicity (lactate dehydrogenase concentration) (HCAECs): No cytotoxicity was detected
- inhibition at 5 µg/mL ([2]; 5 μg/mL Ciglitazone): > 50%
- inhibition at 10 µg/mL ([2]; 10 μg/mL Ciglitazone): ~100%
